Results on 6 compounds are retold here after article PMC3814989, “Development of a Fluorescence Polarization Based High-Throughput Assay to Identify Casitas B-Lineage Lymphoma RING Domain Regulators” (PLoS ONE, 2013).

Like-named read-outs stand apart in the source and are kept apart here. Residues, ends and D or L forms follow the SMILES beside them. Bounds are passed on as bounds.

The target of this test is T1, c-Cbl (RING) protein (Homo sapiens, UniProt P22681).
T1 construct: c-Cbl (RING) protein including the linker and RING domain (codon 358–457) was tagged with glutathione S-transferase (GST); GST; made in house
T1 sequence (P22681 358-457): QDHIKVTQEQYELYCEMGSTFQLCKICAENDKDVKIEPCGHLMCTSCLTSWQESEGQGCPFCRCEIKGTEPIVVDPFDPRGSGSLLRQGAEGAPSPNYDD
The experiment in a line: Competitive FP assay/screen: displacement of probe 1 from c-Cbl (RING) protein. The format is binding. The conditions noted are these: for Outcome in detergent-present screen: detergent-present screen (0.01% Triton X-100); for Hit verification outcome: hits from detergent-free screen, more extensive competitive binding assays. Here is the method: Assays were carried out in detergent-free buffer system (PBS, pH = 7.4) or detergent-present buffer system (0.01% Triton X-100 in PBS, pH = 7.4). All FP measurements were made on 384-well, low-volume, black, v-bottom polystyrene microplates (Corning, Shanghai, China) using the ZS-2 plate reader. The binding affinities of fluorescein-labeled peptides/regulators binding to c-Cbl (RING) protein were verified by titrating an increasing concentration of protein into a constant concentration of labeled peptides. […] The total fluorescence (TF) values were also measured. The change in polarization was graphed as a function of the log of the protein concentration, and the dissociation constant (Kd) and the change in mP (ΔmP) were obtained from the resulting sigmoidal curve. The concentrations of fluorescein-labeled peptide and proteins were optimized.
Unlabeled short peptide was titrated against the FITC-labeled peptide (100 nmol/L) and protein (3 µmol/L) mixture. Plates were incubated at room temperature for up to 3 hours or 30 min at different temperatures.
Master mixtures containing fluorescein-labeled probe and Cbl (RING) protein Cbl (RING) protein, 3 µmol/L and probe 1 at 100 nmol/L) in a reaction volume of 19 µl were prepared and loaded to plates. The library compounds (10 µmol/L – 0.078 µmol/L, half dilutions) were prepared separately and transferred into the assay plates. The first and last columns of each plate were used as positive and negative control wells. Wells containing the drug only were used as controls to detect auto-fluorescence of the compounds in the total fluorescence assay. After subtraction of the background signal, data was processed and the IC50 values were determined by non-linear least square fitting (four parameters) using SigmaPlot 11.0.
Hits were validated using the primary screening assay conditions in triplicate.

The mark [1] stands for this setting: primary screen, detergent-free system, 10 to 0.078 µmol/L, 5% DMSO, read-out: IC50 Primary screen DF.
Where [2] appears, read: primary screen, detergent-present system (0.01% Triton X-100), 10 to 0.078 µmol/L, 5% DMSO, read-out: IC50 Primary screen DP.
Where [3] appears, read: validated in triplicate, detergent-free system, read-out: IC50 Validated DF.
[4] abbreviates: validated in triplicate, detergent-present system (0.01% Triton X-100), NR: no dose response, read-out: IC50 Validated DP.

`C[C@]1(O)C[C@@H](O)[C@@H]2C=CO[C@@H](O[C@@H]3O[C@H](CO)[C@@H](O)[C@H](O)[C@H]3O)[C@@H]21` [Leonuride]: the IC50 runs as follows: (primary screen, detergent-free system, 10 to 0.078 µmol/L, 5% DMSO, listed as leonuride, read-out: IC50 Primary screen DF) less than 5 µM; under setting [1], 3.5 µM; under setting [2], 3.8 µM; under setting [3], 4.6 ± 0.8 µM; under setting [4], 4.5 ± 1.1 µM.
In the case of `CO[C@]1(CC[C@@H](C)CO[C@@H]2O[C@H](CO)[C@@H](O)[C@H](O)[C@H]2O)O[C@H]2C[C@H]3[C@@H]4CC=C5C[C@@H](O[C@@H]6O[C@H](CO)[C@@H](O[C@@H]7O[C@@H](C)[C@H](O)[C@@H](O)[C@H]7O)[C@H](O)[C@H]6O[C@@H]6O[C@@H](C)[C@H](O)[C@@H](O)[C@H]6O)CC[C@]5(C)[C@H]4CC[C@]3(C)[C@H]2[C@@H]1C` [Methylprotodioscin], the IC50 by setting is: under setting [1], 4.8 µM; under setting [2], 4 µM; under setting [3], 4.2 ± 0.5 µM; under setting [4], 4 ± 0.8 µM.
On to `CC(=O)N1CCC[C@H]1C(=O)N[C@@H](Cc1ccccc1)C(=O)N[C@@H](CCCCN)C(=O)N1CCC[C@H]1C(=O)N1CCC[C@H]1C(N)=O` [Peptide 1, Ac-PFKPP-NH2] (Ac-PFKPP-NH2), for which the IC50 runs as follows: (detergent-free system, c-Cbl (RING) protein 3 µmol/L + 100 nmol/L probe 1, read-out: IC50, unlabeled peptide competing with probe 1) 1.05 ± 0.09 µM; (detergent-present system (0.01% Triton X-100), c-Cbl (RING) protein 3 µmol/L + 100 nmol/L probe 1, read-out: IC50, unlabeled peptide competing with probe 1) 1.06 ± 0.09 µM.
Regarding `CC(=O)N1CCC[C@H]1C(=O)N[C@@H](C)C(=O)N[C@@H](CCCCN)C(=O)N1CCC[C@H]1C(=O)N1CCC[C@H]1C(N)=O` [Peptide 2, Ac-PAKPP-NH2] (Ac-PAKPP-NH2), the “Effect of unlabeled peptide on FP values” (detergent-free system, c-Cbl (RING) protein 3 µmol/L + 100 nmol/L probe 1) is on record as “does not alter the FP values”.
Consider `O=c1c(O)c(-c2ccc(O)c(O)c2)oc2cc(O)cc(O)c12` [Quercetin], for which the “Outcome in detergent-present screen” value is reported as “negative” and the Hit verification outcome is recorded as “false positive hits”.
As to Tehmaglutin, the “Outcome in detergent-present screen” value is “negative” and the Hit verification outcome is reported as “false positive hits”. Besides, the IC50 (primary screen, detergent-free system, 10 to 0.078 µmol/L, 5% DMSO, listed as tehmaglutin, read-out: IC50 Primary screen DF) is less than 5 µM. Further, the IC50 under setting [1] stood at 5 µM. In addition, under setting [2], the IC50 is more than 10 µM. In addition, the 50% inhibitory concentration (IC50) under setting [3] was determined as 4.7 ± 0.4 µM. For the same compound, the concentration for half-maximal inhibition (IC50) under setting [4] is more than 10 µM.
